Values quoted from earlier work, collected in patent US9365559B2, “Crystal form of Dabrafenib and preparation method of use thereof” (Hangzhou Pushai Pharmaceutical Technology Co., LTD., priority 2013, dated 2016).

Columns and labels:
BRAFV600E-mutan melanoma = details: patients with BRAFV600E-mutan melanoma; cited from earlier work
[1] = test system: one or more Raf-family kinases; details: disclosed in WO2009/137391A2 and U.S. Pat. No. 7,994,185B2; cited from earlier work

## CC(C)(C)c1nc(-c2cccc(NS(=O)(=O)c3c(F)cccc3F)c2F)c(-c2ccnc(N)n2)s1 [Dabrafenib, N-[3-[5-(2-aminopyrimidin-4-yl)-2-(tert-butyl)thiazo-4-lyl]-2-fluorophenyl]-2,6-difluorobenzenesulfonamide]
BRAFV600E-mutan melanoma
  safety profile: acceptable safety profile
  therapeutical activity: has therapeutical activities
[1]
  inhibitory effect on Raf-family kinases: has the inhibitory effection
